Test results: patent US12285397B2, “Use of (s)-3-amino-4-(difluoromethylenyl) cyclopent-1-ene-1-carboxylic acid and related compounds, (1S,3S)-3-amino-4-(difluoromethylidene) cyclopentane-1-carboxylic acid and vigabatrin in the treatment of developmental disorders” (Ovid Therapeutics Inc., priority 2018, dated 2025)

Tests used:
Fmr1 KO1 mice = test: Open field repetitive behavior: stereotypy count, Fmr1 KO1 mice; type: in vivo, mouse
Source text: (§1) Mutant fmr1 knockout (KO) mice recapitulate the Fragile X syndrome (FXS) phenotype and represent a preclinical model for assessment of putative drug treatments. In this study three different mice models of FXS were used: Fmr1 KO1 is the original Fmr1 knockout animal that carries an insertion in exon 5. See, e.g., Bakker C E, et al., The Dutch-Belgian Fragile X Consortium, Fmr1 knockout mice: A model to study fragile X mental retardation. Cell. 1994; 78:23-33 It is a protein null, although Fmr1 mRNA is still present. It is backcrossed to the C57/B16 strain. Subsequently, these mice were bred into different background strains, such as the FVB inbred mouse strain. Fmr1 KO2 is a null allele at Fmr1 generated by deletion of the promoter and first exon of Fmr1. See, Mientjes, E J et al., The generation of a conditional Fmr1 knock out mouse model to study Fmrp function in vivo. Neurobiology of Disease (2006) 21(3): 549-555. It is both protein and mRNA null. Backcrossed to the C57/B16 strain. Genotyping was accomplished using TransnetXY Automated Genotyping (http://www.transnetyx.com/). TRANSNETYX, INC., 8110 Cordova Rd. Suite 119, Cordova, TN 38016, USA.
(§2) The mice were housed in plastic cages (35×30×12 cm), 5 in each and habituated to the animal facilities for at least a week before test. The room temperature (21±2° C.), relative humidity (55±5%), a 12-h light-dark cycle (lights on 7 a.m.-7 p.m.) and air exchange (16 times per h) were automatically controlled. The animals had free access to commercial food pellets and water. Testing was conducted during the light phase. Testing was conducted on Fmr1 knockout mice and their wild-type (WT) littermates. Ten mice per treatment group, 14 weeks of age, were used for behavioral experiments. Experiments were conducted in line with the requirements of the UK Animals (Scientific Procedures) Act, 1986.
(§3) Oral dosing was performed by using 1.5-in. curved, 20-gauge, stainless steel feeding needles with a 2.25-mm ball (Braintree Scientific, Braintree, MA). Each gavage treatment was given in 0.5% methyl cellulose (Methyl Cellulose M0512, Sigma-Aldrich, St Louis, MO) used as vehicle with or without treatment compounds. The same veterinarian, blinded to the treatment groups, performed the procedure, and documented animal reactions to oral gavage. Reactions considered to indicate stress were defined as excessive struggling during gavage or abnormal behavior after gavage (labored breathing, frozen stance, exaggerated jumping, shuddering, and hunched posture).
(§4) For experiments all mice were tested once in the same apparatus. Prior to testing, mice not in the study were placed in the apparatus for some minutes before the experiment. The apparatus was then cleaned with moist and dry tissues before testing each mouse. The aim was to create a low but constant background mouse odor for all experimental subjects. All experiments were conducted with the experimenters blind to genotype and drug treatment during all testing and data analysis. Separate investigators prepared and coded dosing solutions, allocated the mice to the study treatment groups, dosed the animals, and collected the behavioral data. Data were analyzed by one-way analysis of variance (ANOVA) followed by post-hoc comparisons where appropriate using Tukey's Multiple Comparison Test. Data are represented as the mean and standard error of the mean (SEM).
2. Open Field Repetitive Behaviors (RB) (stereotypies: anticlockwise circling and self grooming). Fmr1 KO1 mice display the autism-like phenotypes of repetitive behaviors like counter revolutions (CCW), self grooming and stereotypy that typically involves behaviors such as head bobbing.
C. […]

Fmr1 KO2 mice = test: Open field repetitive behavior: stereotypy count, Fmr1 KO2 mice; type: in vivo, mouse
Source text: as §1, §2, §3, §4
2. Open Field Repetitive Behaviors (stereotypies: anticlockwise circling (aka counter revolutions) (CCW) and self grooming). Fmr1 KO2 mice display the autism-like phenotypes of repetitive behaviors like CCW, self grooming and stereotypy that typically involves behaviors such as head bobbing.
C. […]

SMILES: N[C@H]1C=C(C(=O)O)CC1=C(F)F [Compound, (S)-3-Amino-4-(difluoromethylenyl)cyclopent-1-ene-1-carboxylic acid]
- Stereotypy count, WT-Veh vs. KO1-Compound: Significant? (Fmr1 KO1 mice; 0.01 mg/Kg PO QD seven days): Yes
- Stereotypy count, WT-Veh vs. KO1-Compound: Significant? (Fmr1 KO1 mice; 0.05 mg/Kg PO QD seven days): No
- Stereotypy count, WT-Veh vs. KO1-Compound: Summary (Fmr1 KO1 mice; 0.05 mg/Kg PO QD seven days): ns
- Stereotypy count, WT-Veh vs. KO1-Compound: Significant? (Fmr1 KO1 mice; 0.1 mg/Kg PO QD seven days): No
- Stereotypy count, WT-Veh vs. KO1-Compound: Summary (Fmr1 KO1 mice; 0.1 mg/Kg PO QD seven days): ns
- Effect on repetitive behaviors (stereotypical movements, FIG. 10) (Fmr1 KO1 mice; 0.05 and 0.1 mg/Kg): decreased
- Stereotypy count, WT-Veh vs. KO2-Compound: Significant? (Fmr1 KO2 mice; 0.01 mg/Kg PO QD seven days): Yes
- Stereotypy count, WT-Veh vs. KO2-Compound: Significant? (Fmr1 KO2 mice; 0.05 mg/Kg PO QD seven days): No
- Stereotypy count, WT-Veh vs. KO2-Compound: Summary (Fmr1 KO2 mice; 0.05 mg/Kg PO QD seven days): ns
- Stereotypy count, WT-Veh vs. KO2-Compound: Significant? (Fmr1 KO2 mice; 0.1 mg/Kg PO QD seven days): No
- Stereotypy count, WT-Veh vs. KO2-Compound: Summary (Fmr1 KO2 mice; 0.1 mg/Kg PO QD seven days): ns
- Effect on stereotypy counts phenotype (FIG. 4) (Fmr1 KO2 mice; 0.05 and 0.1 mg/Kg): reversed
